Measured values as given in patent publication US20250092033A1, “HETEROAROMATIC NITROGEN-OXIDE COMPOUND, PREPARATION METHOD THEREFOR, AND USE THEREOF” (BEIJING AVISTONE BIOTECHNOLOGY CO., LTD., priority 2021, published 2025).

How the values were obtained:
[1] = molecular target: T1, wild type (WT) MET kinase (Homo sapiens, UniProt P08581); assay: Kinase inhibition experiment (HTRF KinEASE-TK kit), wild-type MET; format: biochemical; conditions: 10 concentrations, 3-fold dilution
T1 construct: purchased Carna 08-151
T1 sequence (P08581 25-1390): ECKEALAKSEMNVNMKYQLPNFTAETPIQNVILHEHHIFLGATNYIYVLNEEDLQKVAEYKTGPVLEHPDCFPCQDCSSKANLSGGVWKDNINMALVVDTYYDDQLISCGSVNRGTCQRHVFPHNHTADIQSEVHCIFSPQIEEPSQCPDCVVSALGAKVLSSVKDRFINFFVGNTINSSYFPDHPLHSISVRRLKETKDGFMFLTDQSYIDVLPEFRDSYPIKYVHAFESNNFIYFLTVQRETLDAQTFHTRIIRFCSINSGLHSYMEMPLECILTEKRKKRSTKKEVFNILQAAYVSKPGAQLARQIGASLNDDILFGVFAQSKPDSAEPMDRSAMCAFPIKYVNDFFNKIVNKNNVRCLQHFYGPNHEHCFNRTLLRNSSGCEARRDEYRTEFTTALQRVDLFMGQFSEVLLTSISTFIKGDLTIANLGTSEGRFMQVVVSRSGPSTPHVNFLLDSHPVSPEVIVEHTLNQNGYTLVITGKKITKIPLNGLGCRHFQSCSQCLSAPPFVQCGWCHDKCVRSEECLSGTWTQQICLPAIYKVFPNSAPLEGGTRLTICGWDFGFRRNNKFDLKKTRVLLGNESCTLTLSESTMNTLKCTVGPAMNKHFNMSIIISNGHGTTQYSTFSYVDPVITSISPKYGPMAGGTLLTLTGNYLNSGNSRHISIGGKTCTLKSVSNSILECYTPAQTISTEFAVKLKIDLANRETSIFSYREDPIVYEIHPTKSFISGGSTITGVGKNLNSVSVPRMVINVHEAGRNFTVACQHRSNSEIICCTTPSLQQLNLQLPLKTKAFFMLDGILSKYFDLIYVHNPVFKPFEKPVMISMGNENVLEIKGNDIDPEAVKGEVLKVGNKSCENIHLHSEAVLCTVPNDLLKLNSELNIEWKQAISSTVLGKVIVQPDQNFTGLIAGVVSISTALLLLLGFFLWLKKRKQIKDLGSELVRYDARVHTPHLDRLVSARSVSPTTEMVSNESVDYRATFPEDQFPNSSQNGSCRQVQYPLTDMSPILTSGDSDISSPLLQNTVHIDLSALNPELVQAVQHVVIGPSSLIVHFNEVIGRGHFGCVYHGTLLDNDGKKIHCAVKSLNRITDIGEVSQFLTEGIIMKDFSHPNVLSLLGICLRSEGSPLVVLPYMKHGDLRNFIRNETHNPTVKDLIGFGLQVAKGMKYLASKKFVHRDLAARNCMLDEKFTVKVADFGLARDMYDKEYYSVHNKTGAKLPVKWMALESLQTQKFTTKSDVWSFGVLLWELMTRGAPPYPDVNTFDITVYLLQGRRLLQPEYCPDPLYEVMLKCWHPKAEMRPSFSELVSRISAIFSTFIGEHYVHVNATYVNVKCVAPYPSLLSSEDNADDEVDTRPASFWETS
Procedure: (§1) The activity of the compounds was determined by detecting the residual amount of ATP after reacting with wild-type or mutant MET protein kinase by using an HTRF KinEASE-TK kit. […]
(§2) The compounds were determined on the selected kinase, the solvent control was set and a total of 10 concentrations were detected, diluted 3-fold, 2 replicates per concentration.
(§3) 1 volume of 5× kinase reaction buffer and 4 volumes of water; 5 mM MgCl2; 1 mM DTT; 1 mM MnCl2; or 2500 nm SEB.
(§4) 1) 10 nl or 4 μlof the diluted compound was transferred to each well of the reaction plate (784075 or 264706, Greiner or Thermo) with a pipette, the reaction plate was sealed with a sealing plate, and centrifuged at 1000 for 1 minute.
(§5) 2) 2× MET was prepared from 1× enzyme reaction buffer, 5 μl or 2 μl kinase was added to each well of the reaction plate, the reaction plate was sealed with a sealing plate, centrifuged at 1000 g for 30 seconds and incubated at room temperature for 10 min.
(§6) 3) a mixed solution of 2× TK-substrate-biotin and ATP were prepared from 1× enzyme reaction buffer solution, 5 μl or 2 μl TK-substrate-biotin/ATP of the mixed solution was added into a reaction plate, the reaction plate was sealed with a sealing plate, centrifuged at 1000 g for 30 seconds and reacted for 50 minutes or 10 minutes at room temperature.
(§7) 4) a mixed solution of 4× or 2× Sa-XL 665 and TK-antibody-Cryptate were prepared from HTRF detection buffer, 5 or 10 μl of the mixed solution of Sa-XL 665 and TK-antibody-Cryptate was added into each well, centrifuged at 1000 g for 30 seconds, and reacted at room temperature for 1 h.
(§8) 5) the fluorescence signals at 615 nm (cryptate) and 665 nm (XL665) were read with Envision 2104 or TECAN.
(§9) The data was analyzed using GraphPad Prism 6.0 or 7 software, and the dose-response curve was fitted with nonlinear S-curve regression, and the IC50 value was calculated therefrom.
(§10) Enzyme Inhibition Percent (%)=100-(Signalmpd-SignalAve_PC)/(SignalAve_VC-SignalAve_PC)×100

MET F1200I = molecular target: T2, MET F1200I (Homo sapiens, UniProt P08581, F1200I); assay: Kinase inhibition experiment (HTRF KinEASE-TK kit), mutant MET F1200I; format: biochemical; conditions: 10 concentrations, 3-fold dilution
T2 construct: purchased Signalchem M52-12GG/Y767-2
T2 sequence (P08581 25-1390 F1200I): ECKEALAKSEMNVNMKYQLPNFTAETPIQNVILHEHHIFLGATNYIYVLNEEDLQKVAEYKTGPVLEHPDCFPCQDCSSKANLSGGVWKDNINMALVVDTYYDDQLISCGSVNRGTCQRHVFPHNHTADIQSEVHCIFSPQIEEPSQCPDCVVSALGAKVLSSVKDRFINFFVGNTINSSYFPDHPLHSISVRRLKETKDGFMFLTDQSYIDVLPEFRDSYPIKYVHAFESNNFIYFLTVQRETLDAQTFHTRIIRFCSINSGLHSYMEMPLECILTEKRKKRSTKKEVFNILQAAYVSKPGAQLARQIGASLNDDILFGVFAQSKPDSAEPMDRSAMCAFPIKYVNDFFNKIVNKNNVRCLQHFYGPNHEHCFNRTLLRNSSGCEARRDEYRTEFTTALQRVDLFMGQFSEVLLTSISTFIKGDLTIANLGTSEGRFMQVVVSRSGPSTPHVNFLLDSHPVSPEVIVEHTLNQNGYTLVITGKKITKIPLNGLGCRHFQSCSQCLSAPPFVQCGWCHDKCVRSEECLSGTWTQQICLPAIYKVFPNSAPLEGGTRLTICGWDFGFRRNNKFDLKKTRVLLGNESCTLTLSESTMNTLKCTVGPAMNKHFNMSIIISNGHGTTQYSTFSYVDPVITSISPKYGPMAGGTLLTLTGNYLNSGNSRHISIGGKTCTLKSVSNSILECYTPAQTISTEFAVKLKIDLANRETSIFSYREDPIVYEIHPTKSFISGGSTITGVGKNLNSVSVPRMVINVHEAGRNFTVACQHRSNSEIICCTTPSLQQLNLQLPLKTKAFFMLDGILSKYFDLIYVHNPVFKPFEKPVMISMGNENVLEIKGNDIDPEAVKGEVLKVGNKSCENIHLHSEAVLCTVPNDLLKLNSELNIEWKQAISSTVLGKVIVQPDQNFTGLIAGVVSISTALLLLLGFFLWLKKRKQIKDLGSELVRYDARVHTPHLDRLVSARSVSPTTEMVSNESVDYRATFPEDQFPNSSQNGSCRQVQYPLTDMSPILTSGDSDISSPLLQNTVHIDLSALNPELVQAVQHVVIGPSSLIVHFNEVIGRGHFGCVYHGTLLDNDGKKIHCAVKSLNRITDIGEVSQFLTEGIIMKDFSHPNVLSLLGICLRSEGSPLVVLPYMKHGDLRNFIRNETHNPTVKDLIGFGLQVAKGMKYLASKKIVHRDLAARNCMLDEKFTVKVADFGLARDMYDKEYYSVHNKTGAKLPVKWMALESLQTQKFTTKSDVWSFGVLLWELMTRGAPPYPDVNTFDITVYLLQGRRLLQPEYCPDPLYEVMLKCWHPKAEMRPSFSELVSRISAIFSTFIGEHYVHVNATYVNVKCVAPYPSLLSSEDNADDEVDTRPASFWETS
Procedure: as §1, §2, §3, §4, §5, §6, §7, §8, §9, §10

MET D1228N = molecular target: T3, MET D1228N (Homo sapiens, UniProt P08581, D1228N); assay: Kinase inhibition experiment (HTRF KinEASE-TK kit), mutant MET D1228N; format: biochemical; conditions: 10 concentrations, 3-fold dilution
T3 construct: purchased Signalchem M52-12IG
T3 sequence (P08581 25-1390 D1228N): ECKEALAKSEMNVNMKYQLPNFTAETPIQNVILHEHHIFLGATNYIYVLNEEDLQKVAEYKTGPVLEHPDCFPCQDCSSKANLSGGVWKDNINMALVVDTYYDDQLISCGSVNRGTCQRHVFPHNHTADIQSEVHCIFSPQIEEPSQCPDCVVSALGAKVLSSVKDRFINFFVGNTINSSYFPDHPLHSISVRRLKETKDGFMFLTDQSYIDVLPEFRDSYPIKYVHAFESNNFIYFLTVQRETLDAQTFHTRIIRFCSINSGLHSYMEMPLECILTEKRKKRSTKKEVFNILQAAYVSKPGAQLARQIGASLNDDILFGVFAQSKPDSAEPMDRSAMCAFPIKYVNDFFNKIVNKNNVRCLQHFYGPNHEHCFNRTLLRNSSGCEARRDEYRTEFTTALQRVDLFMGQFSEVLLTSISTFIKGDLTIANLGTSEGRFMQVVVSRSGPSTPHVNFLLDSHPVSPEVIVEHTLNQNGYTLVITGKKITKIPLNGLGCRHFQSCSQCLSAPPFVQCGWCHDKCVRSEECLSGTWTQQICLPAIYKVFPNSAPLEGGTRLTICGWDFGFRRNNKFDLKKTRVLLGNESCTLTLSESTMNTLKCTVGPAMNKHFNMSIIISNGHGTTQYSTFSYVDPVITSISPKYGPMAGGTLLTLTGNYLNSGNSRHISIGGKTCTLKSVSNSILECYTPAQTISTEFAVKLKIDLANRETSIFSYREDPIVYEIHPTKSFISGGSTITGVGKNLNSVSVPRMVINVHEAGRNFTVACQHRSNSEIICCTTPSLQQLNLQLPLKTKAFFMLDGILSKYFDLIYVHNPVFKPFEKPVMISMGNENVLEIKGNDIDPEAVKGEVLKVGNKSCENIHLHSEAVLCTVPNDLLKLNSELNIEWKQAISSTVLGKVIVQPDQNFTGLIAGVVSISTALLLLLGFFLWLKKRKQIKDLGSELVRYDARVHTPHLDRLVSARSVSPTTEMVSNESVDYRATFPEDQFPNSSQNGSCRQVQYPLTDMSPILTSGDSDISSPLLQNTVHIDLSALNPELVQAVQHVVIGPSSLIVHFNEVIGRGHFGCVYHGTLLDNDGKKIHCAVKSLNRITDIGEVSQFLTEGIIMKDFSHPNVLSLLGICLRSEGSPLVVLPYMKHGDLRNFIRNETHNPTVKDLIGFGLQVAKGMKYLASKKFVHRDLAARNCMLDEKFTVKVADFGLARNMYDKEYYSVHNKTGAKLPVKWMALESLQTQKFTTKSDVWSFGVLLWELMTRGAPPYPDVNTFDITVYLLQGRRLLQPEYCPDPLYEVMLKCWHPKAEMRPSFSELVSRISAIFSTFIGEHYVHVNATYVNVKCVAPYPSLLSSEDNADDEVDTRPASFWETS
Procedure: as §1, §2, §3, §4, §5, §6, §7, §8, §9, §10

Hs746T cell line = assay: Cell proliferation inhibition experiment (CellTiter-Glo), Hs746T; format: cell-based; conditions: Homo sapiens, Hs 746T, CTG, 72 h
Procedure: (§11) CellTiter-Glo™ live cell detection kit adopts luciferase as the detection substance, and the luciferase needs the participation of ATP in the luminescence process. CellTiter-Glo™ reagent was added into the cell culture medium and the luminescence value was measured. The light signal is in direct proportion to the amount of ATP in the system, ATP is in direct correlation with number of living cells. Therefore, the proliferation of cells can be detected by detecting the content of ATP with CellTiter-Glo kit.
(§12) In the experiment, the proliferation inhibition effect of the prepared compounds on tumor cell lines Hs746T, EBC-1 and H1993 was measured by a celltiter-glo (CTG) method, and 50% inhibition concentration IC50 was calculated.
(§13) The compounds were determined on the selected cells, the solvent control was set and a total of 10 concentrations were detected, 2 replicates per concentration.
(§14) a) Cells in the logarithmic growth phase were harvested and counted by a […]. The cell viability was detected by a trypan blue exclusion method to ensure that the cell viability was over 90%.
(§15) b) The cell concentration was adjusted; 30 μL of cell suspension was added to a 384-well plate respectively.
(§16) c) Cells in a 384-well plate were incubated overnight at 37° C., 5% CO2 and 95% humidity.
(§17) a) 10 times of drug solution was prepared with the highest concentration of 10 mM, 10 concentrations and 3 times dilution, 10 μL of drug solution was added into each well of a 384-well plate inoculated with cells, and three multiple wells were arranged for each drug concentration. DMSO was the blank control.
(§18) b) The cells in the 384-well plate were incubated for a further 72 h at 37° C., 5% CO2 and 95% humidity before CTG analysis.
(§19) a) The CTG reagent was melted and the cell plate was equilibrated to room temperature for 30 min.
(§20) b) An equal volume of CTG solution was added to each well.
(§21) c) Cells were lysed by shaking on an orbital shaker for 5 minutes.
(§22) d) The cell plate was left at room temperature for 20 minutes to stabilize the luminescence signal.
(§23) e) The cold light value was read.
(§24) The data was analyzed by GraphPad Prism 8 software, and the dose-response curve was fitted with nonlinear S-curve regression, and the IC50 value was calculated therefrom.
(§25) Cell viability(%)=(Lumdrugs to be tested-Lumblank control)/(Lumcell control-Lumblank control)×100%.

EBC-1 cell line = assay: Cell proliferation inhibition experiment (CellTiter-Glo), EBC-1; format: cell-based; conditions: Homo sapiens, CTG, 72 h
Procedure: as §11, §12, §13, §14, §15, §16, §17, §18, §19, §20, §21, §22, §23, §24, §25

H1993 cell line = assay: Cell proliferation inhibition experiment (CellTiter-Glo), H1993; format: cell-based; conditions: Homo sapiens, NCI-H1993, CTG, 72 h
Procedure: as §11, §12, §13, §14, §15, §16, §17, §18, §19, §20, §21, §22, §23, §24, §25

Compound | IC50 [1] | IC50 (MET F1200I) | IC50 (MET D1228N) | IC50 (Hs746T cell line) | IC50 (EBC-1 cell line) | IC50 (H1993 cell line)
O=C(Nc1ccc(Oc2ccnc3[nH]nc(NC4COCC4O)c23)c(F)c1)c1cccc(-c2ccc(F)cc2)[n+]1[O-] (stereo not drawn) [Final product 24] | 2.5 nM | 9.5 nM | 29.5 nM | 14.5 nM | 20.1 nM | 
C[C@H](CO)Nc1n[nH]c2nccc(Oc3ccc(NC(=O)c4ccc(Cl)c(-c5ccc(F)cc5)[n+]4[O-])cc3F)c12 [Final product 57] | 1.6 nM | 2.8 nM | 28.5 nM | 11.4 nM | 19.6 nM | 59.5 nM
CC(C)(O)CNc1n[nH]c2nccc(Oc3ccc(NC(=O)c4cccc(-c5ccc(F)cc5)[n+]4[O-])cc3F)c12 [Final product 10] | 4.7 nM | 30.9 nM | 13.6 nM | 29.1 nM | 52.5 nM | 
C[C@H](CO)Nc1n[nH]c2nccc(Oc3ccc(NC(=O)c4cccc(-c5ccc(F)cc5)[n+]4[O-])cc3Cl)c12 [Final product 97] | 3.3 nM | 7 nM | 20.8 nM | 12.1 nM | 12.9 nM | 36.4 nM
Cc1ccc(C(=O)Nc2ccc(Oc3ccnc4[nH]nc(N[C@H](C)CO)c34)c(Cl)c2)[n+]([O-])c1-c1ccc(F)cc1 [Final product 124] | 0.8 nM | 0.8 nM | 7.6 nM | 21.9 nM | 14.9 nM | 29.9 nM
COc1ccc(C(=O)Nc2ccc(Oc3ccnc4[nH]nc(N[C@H](C)CO)c34)c(Cl)c2)[n+]([O-])c1-c1ccc(F)cc1 [Final product 138] | 1.6 nM | 0.6 nM | 38.5 nM | 8.7 nM | 9.4 nM | 29.3 nM
C[C@H](CO)Nc1n[nH]c2nccc(Oc3ccc(NC(=O)c4ccc(F)c(-c5ccc(F)cc5)[n+]4[O-])cc3Cl)c12 [Final product 117] | 0.9 nM | 0.9 nM | 17.8 nM | 7 nM | 17.2 nM | 57.2 nM
O=C(Nc1ccc(Oc2ccnc3[nH]cc(-c4cccnc4)c23)c(F)c1)c1ccc(Cl)c(-c2ccc(F)cc2)[n+]1[O-] [Final product 185, reference compound] | 20.4 nM | 187 nM | 62 nM | 155 nM | 133 nM | 204 nM
CCc1ccc(C(=O)Nc2ccc(Oc3ccnc4[nH]nc(N[C@H](C)CO)c34)c(F)c2)[n+]([O-])c1-c1ccc(F)cc1 [Final product 80] | 1.5 nM | 2.3 nM | 9.8 nM | 9.6 nM | 8.7 nM | 26.8 nM
Cc1ccc(C(=O)Nc2ccc(Oc3ccnc4[nH]nc(NCC(O)CO)c34)c(F)c2)[n+]([O-])c1-c1ccc(F)cc1 (stereo not drawn) [Final product 69] | 3 nM | 12.3 nM | 25.4 nM | 19.6 nM | 29.3 nM | 68.4 nM
C[C@H](CO)Nc1n[nH]c2nccc(Oc3ccc(NC(=O)c4ccc(F)c(-c5ccc(F)cc5)[n+]4[O-])cc3F)c12 [Final product 53] | 2 nM | 8.7 nM | 4.8 nM | 14.6 nM | 15.7 nM | 29 nM
O=C(Nc1ccc(Oc2ccnc3[nH]nc(N4CC5(CC(O)C5)C4)c23)c(F)c1)c1cccc(-c2ccc(F)cc2)[n+]1[O-] [Final product 36] | 4 nM | 6.7 nM | 25.1 nM | 9.9 nM | 15.1 nM | 
C[C@H](CO)Nc1n[nH]c2nccc(Oc3ccc(NC(=O)c4cccc(-c5ccc(F)cc5F)[n+]4[O-])cc3F)c12 [Final product 44] | 2.5 nM | 6.7 nM | 14.8 nM | 15.2 nM | 21.3 nM | 85.3 nM
O=C(Nc1ccc(Oc2ccnc3[nH]nc(N[C@@H]4CCC(O)C4)c23)c(F)c1)c1ccc(Cl)c(-c2ccc(F)cc2)[n+]1[O-] (stereo partly drawn) [Final product 63] | 4.7 nM | 13.1 nM | 26.6 nM | 4.6 nM | 13.4 nM | 
Cc1ccc(C(=O)Nc2ccc(Oc3ccnc4[nH]nc(N[C@H](C)CO)c34)c(F)c2)[n+]([O-])c1-c1ccc(F)cc1 [Final product 67] | 4 nM | 16.3 nM | 12.3 nM | 4.2 nM | 6.6 nM | 19.1 nM
CCC(CO)Nc1n[nH]c2nccc(Oc3ccc(NC(=O)c4cccc(-c5ccc(F)cc5)[n+]4[O-])cc3F)c12 (stereo not drawn) [Final product 4] | 2.2 nM | 10 nM | 15.7 nM | 12.6 nM | 14.4 nM | 54.9 nM
CC[C@H](CO)Nc1n[nH]c2nccc(Oc3ccc(NC(=O)c4ccc(Cl)c(-c5ccc(F)cc5)[n+]4[O-])cc3F)c12 [Final product 58] | 4.9 nM | 16.1 nM | 15.9 nM | 12.8 nM | 13.2 nM | 16.4 nM
C[C@H](CO)Nc1n[nH]c2nccc(Oc3ccc(NC(=O)c4cccc(-c5ccc(F)cc5)[n+]4[O-])cc3F)c12 [Final Product 2, (R)-2-((3-fluoro-4-((3-((1-hydroxypropan-2-yl)amino)-1H-pyrazolo[3,4-b]pyridin-4-yl)oxy)phenyl)carbamoyl)-6-(4-fluorophenyl)pyridine 1-oxide] | 0.9 nM | 3 nM | 18 nM | 8.5 nM | 12.6 nM | 31.8 nM
O=C(Nc1ccc(Oc2ncnc3ccn(CCCO)c23)c(F)c1)c1cccc(-c2ccc(F)cc2)[n+]1[O-] [Final product 168, 2-((3-fluoro-4-((5-(3-hydroxypropyl)-5H-pyrrolo[3,2-d]pyrimidin-4-yl)oxy)phenyl)carbamoyl)-6-(4-fluorophenyl)pyridine 1-oxide] | 3.8 nM | 9.2 nM | 13.9 nM | 65.4 nM | 56.7 nM | 
O=C(Nc1ccc(Oc2ccnc3[nH]nc(N4CCC(CO)CC4)c23)c(F)c1)c1cccc(-c2ccc(F)cc2)[n+]1[O-] [Final product 28] | 3 nM | 9.6 nM | 34.5 nM | 14 nM | 17.1 nM | 
COc1ccc(C(=O)Nc2ccc(Oc3ccnc4[nH]nc(N[C@H](C)CO)c34)c(F)c2)[n+]([O-])c1-c1ccc(F)cc1 [Final product 85] | 3.7 nM | 2.3 nM | 10.5 nM | 9.4 nM | 10.4 nM | 29.6 nM
